Our source for the TGI values is PubChem BioAssay (NCI).

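Following 48 hours of exposure in 96-well plates, responses at five concentrations were used to interpolate endpoints linearly. TGI is the concentration that stops growth completely.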 *1 amine or outer side, *2 acyl side, *3 side chain or, on linkers, in order; H or OH if unused. Where a SMILES comes first, the peptide text is derived from it. [ ]: non-standard residue; d: D form. The star is where a group is joined. ξ: configuration not given here. X27 = O=C([C@H]1CCC[C@H]1N[*:1])[*:2]; ξW = NC(Cc1c[nH]c2ccccc12)C(=O)O; ξF = NC(Cc1ccccc1)C(=O)O; Boc = CC(C)(C)OC(=O)*; ξK = NCCCCC(N)C(=O)O; ξT = CC(O)C(N)C(=O)O; tBu = CC(C)(C)*

Holding throughout (test): NCI-60 cell line screen, 48 h
In assay [1] the test system is MOLT-4 leukemia.
For assay [2], the system named is TK-10 renal.
In assay [3] the test system is K-562 leukemia.
In assay [4] the test system is HOP-92 NSCLC.
For assay [5], the system named is HCT-15 colon.
In assay [6] the test system is UACC-62 melanoma.
The subject of assay [7] is MDA-MB-435.
The test system of assay [8] is NCI-H522 lung.
Assay [9] relates to NCI/ADR-RES ovarian.
The test system of assay [10] is CCRF-CEM leukemia.
The subject of assay [11] is NCI-H460 lung.
Assay [12] has as its system IGROV1 ovarian.
For assay [13], the system named is MCF7 breast.
The test system of assay [14] is OVCAR-8 ovarian.
Assay [15] has as its system SN12C renal.
In assay [16] the test system is SK-MEL-28 melanoma.
Assay [17] deals with SF-295 CNS.
Assay [18] concerns SK-MEL-2 melanoma.
Assay [19] relates to LOX IMVI melanoma.
In assay [20] the test system is A498 renal.

As to `Nc1ccc2nc3c(nc2c1)C(=O)c1ccccc1-3`, the TGI in assay [1], in [2], in assay [3], in assay [4], in [5] and in assay [6] was above 100 µM throughout. Besides, the TGI in assay [7], in assay [8], in [9], in [10], in [11] and in [12] was above 100 µM each time. In addition, the TGI in [13], in assay [14], in assay [15], in [16] and in [17] was above 100 µM each time.

For `O=C(NC(=S)Nc1ccc2c(c1)Sc1ccccc1O2)c1ccc([N+](=O)[O-])cc1`, the TGI in assay [18], in assay [2], in [3], in assay [4], in assay [5] and in [6] was above 100 µM throughout. The TGI in assay [19], in [7], in assay [8], in assay [9], in [10] and in assay [11] was above 100 µM in each case. The TGI in assay [12], in assay [13], in assay [14], in [15], in assay [16] and in assay [17] was above 100 µM in each case.

Consider `Cc1ccc2c(=O)cc(Cc3cccs3)[nH]c2n1`, for which the TGI in assay [1], in assay [18], in assay [2], in assay [3], in [5] and in [6] was above 100 µM each time. Moreover, the TGI in assay [19], in [7], in assay [8], in assay [9], in [10] and in assay [12] was above 100 µM in each case. Also, the TGI in assay [13], in assay [14], in assay [15], in assay [16] and in assay [17] was above 100 µM in each case.

`COc1cc2nc(Nc3cccc(Br)c3)nc(Nc3cccc(Br)c3)c2cc1OC`: the TGI in [1] is 47.2 µM; in [18], 36.1 µM; in [2], 39.3 µM; in assay [3] it was 62.2 µM; in [4] it was 29.5 µM; in assay [5], 33.3 µM. Besides, the TGI came out at 32.8 µM in [6]; 30.4 µM in assay [19]; 36 µM in assay [7]; 32.4 µM in [8]; 37.5 µM in [9]; 46.5 µM in assay [10]. For the same compound, the TGI in assay [11] turned out to be 51.8 µM; in assay [12], 30.1 µM; in assay [13] it was 32.4 µM; in assay [14], 31.6 µM; in assay [15] it was 31.4 µM; in assay [16], 33.5 µM. For the same compound, the TGI in assay [17] was 32.7 µM.

Take `CC(OC(C)(C)C)C1NC(=O)C(CCCCNC(=O)OC(C)(C)C)NC(=O)C(Cc2c[nH]c3ccccc23)NC(=O)C(Cc2ccccc2)NC(=O)[C@H]2CCC[C@H]2NC(=O)C(Cc2ccccc2)NC1=O` (stereo partly specified) (cyclo([X27][ξF][ξW][ξK](Boc)[ξT](tBu)[ξF])): the TGI is above 100 µM in assay [1]; 62.8 µM in [18]; above 100 µM in assay [3]; above 100 µM in assay [4]; above 100 µM in assay [5]; above 100 µM in assay [6]. Also, the TGI in assay [19], in assay [7], in assay [8], in assay [9], in assay [10] and in assay [11] was above 100 µM throughout. Also, the TGI in assay [12] was above 100 µM; in [13], above 100 µM; in assay [14] it was above 100 µM; in assay [15], 88.6 µM; in [16], above 100 µM; in assay [17] it was 73.7 µM.

Turning to `Cc1c(C)c(C)c(CC2(C)CSC2)c(CC2(C)CSC2)c1C`, the TGI in assay [1], in assay [18], in assay [2], in assay [3], in assay [4] and in assay [5] was above 100 µM throughout. For the same compound, the TGI in assay [6], in [20], in assay [19], in [8], in assay [9] and in [10] was above 100 µM in each case. In addition, the TGI in assay [11], in assay [12], in [13], in [14], in assay [15] and in assay [16] was above 100 µM in each case. Further, in assay [17], the TGI is above 100 µM.

Regarding `Cc1cc(O)c2c(c1O)C(=O)c1cccc(O)c1C2=O`, the TGI in assay [18], in assay [2], in assay [3], in assay [4], in assay [5] and in [6] was above 100 µM in each case. Moreover, the TGI in assay [19], in [7], in [8], in assay [9], in assay [10] and in assay [11] was above 100 µM in each case. Also, the TGI in assay [12], in [13], in assay [14], in assay [15], in assay [16] and in assay [17] was above 100 µM throughout.
